Assay results published in publication PMC11985910 (Nature Communications, 2025).
Where two headings read alike, the source gives them in different places. Each block holds one compound with its values, some of them ahead of it.

Columns and labels:
[1] = system: HepG2 cells; format: cell-based; conditions: tested up to 100 μM in HepG2 cells
[2] = system: thioglycolate broth-induced peritoneal leucocyte infiltration; assay: Peritonitis leucocyte trafficking model; format: in vivo, mouse; conditions: 6 h; oral SNT-8370 60, verdiperstat 60, PXS-4707 6 mg/kg
[3] = system: panel of 68 enzymes, receptors, ion channels and transporters; conditions: 10 µM; 68 targets screened
[4] = system: LPS-induced lung leucocyte infiltration; assay: Acute lung injury; format: in vivo, mouse; conditions: 6 h post-LPS; oral SNT-8370 30, verdiperstat 30, PXS-4707 10 mg/kg
[5] = molecular target: recombinant human VAP-1 (Homo sapiens, UniProt Q16853); format: biochemical; conditions: 30 μM, 40 min, 37 °C
[6] = molecular target: T1, MPO (Homo sapiens, UniProt P05164); assay: MPO partition ratio assay; format: biochemical; conditions: mean ± SEM, n = 3; MPO 60 nM, 2 μM H2O2
[7] = molecular target: MPO (Mus musculus, UniProt P11247); assay: Acute peritonitis; format: in vivo; conditions: for reduction of peritoneal MPO activity: oral 60 mg/kg; for effect on lavage fluid MPO protein concentration (ELISA): thioglycolate broth/zymosan A-treated mice
[8] = for drug concentration in peritoneal lavage fluid: 5 h after gavage
[9] = molecular target: VAP-1 (Mus musculus, UniProt O70423); assay: VAP-1 activity in adipose tissue; format: in vivo; conditions: 6 h; oral SNT-8370 60 mg/kg, PXS-4707 6 mg/kg
[10] = molecular target: LOX, human (Homo sapiens, UniProt P28300); assay: LOX activity assay; format: biochemical; conditions: compared to MPO or VAP-1
[11] = molecular target: native human MPO (Homo sapiens, UniProt P05164); assay: MPO-catalysed H2O2 consumption, Amplex Red assay; format: biochemical
[12] = molecular target: T1, MPO; assay: MPO LDL lipid peroxidation assay; format: biochemical
[13] = system: myocardial ischaemia/reperfusion injury; assay: Myocardial infarction; format: in vivo, rat; conditions: 60 mg/kg oral twice daily, 4 weeks
[14] = molecular target: T1, MPO; assay: MPO-catalysed H2O2 consumption, H2O2-specific electrode; format: biochemical
[15] = molecular target: MAO-A, human (Homo sapiens, UniProt P21397); assay: MAO-A activity assay; format: biochemical; conditions: compared to MPO or VAP-1
[16] = system: λ-carrageenan-induced leucocyte infiltration and oedema; assay: Carrageenan air pouch model; format: in vivo, mouse; conditions: for leucocyte influx into the air pouch at 4-h: oral SNT-8370 30, verdiperstat 15, PXS-4707 6, dexamethasone 10 mg/kg
[17] = in vivo; format: in vivo, C57Bl/6J mice; conditions: mouse
[18] = molecular target: human DAO (Homo sapiens, UniProt P19801); format: biochemical; conditions: 30 μM, 40 min, 37 °C
[19] = system: panel of 14 common transporters; format: in vitro ADME, human; conditions: 30 µM; 14 targets screened
[20] = molecular target: T1, MPO; assay: MPO chlorination assay; format: biochemical
[21] = SNT-8370 30, verdiperstat 15, PXS-4707 6, dexamethasone 10 mg/kg

Chain of MPO (Mus musculus, UniProt P11247) (P11247 139-718): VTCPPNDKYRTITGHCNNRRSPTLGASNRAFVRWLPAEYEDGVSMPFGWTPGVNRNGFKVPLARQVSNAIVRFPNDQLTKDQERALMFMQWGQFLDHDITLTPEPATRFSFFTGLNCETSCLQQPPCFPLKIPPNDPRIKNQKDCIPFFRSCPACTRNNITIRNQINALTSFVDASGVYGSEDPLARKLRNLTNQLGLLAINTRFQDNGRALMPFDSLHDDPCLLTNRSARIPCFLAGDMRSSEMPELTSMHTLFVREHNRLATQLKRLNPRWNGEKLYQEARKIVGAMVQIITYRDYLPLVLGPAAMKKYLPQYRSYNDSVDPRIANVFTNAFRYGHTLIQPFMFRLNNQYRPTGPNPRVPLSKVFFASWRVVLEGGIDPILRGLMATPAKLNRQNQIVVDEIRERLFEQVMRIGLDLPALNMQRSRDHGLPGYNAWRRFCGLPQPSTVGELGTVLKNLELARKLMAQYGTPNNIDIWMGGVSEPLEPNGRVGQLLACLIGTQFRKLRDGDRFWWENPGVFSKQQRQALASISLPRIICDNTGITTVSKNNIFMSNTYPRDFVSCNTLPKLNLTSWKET
T1 sequence (P05164 279-745): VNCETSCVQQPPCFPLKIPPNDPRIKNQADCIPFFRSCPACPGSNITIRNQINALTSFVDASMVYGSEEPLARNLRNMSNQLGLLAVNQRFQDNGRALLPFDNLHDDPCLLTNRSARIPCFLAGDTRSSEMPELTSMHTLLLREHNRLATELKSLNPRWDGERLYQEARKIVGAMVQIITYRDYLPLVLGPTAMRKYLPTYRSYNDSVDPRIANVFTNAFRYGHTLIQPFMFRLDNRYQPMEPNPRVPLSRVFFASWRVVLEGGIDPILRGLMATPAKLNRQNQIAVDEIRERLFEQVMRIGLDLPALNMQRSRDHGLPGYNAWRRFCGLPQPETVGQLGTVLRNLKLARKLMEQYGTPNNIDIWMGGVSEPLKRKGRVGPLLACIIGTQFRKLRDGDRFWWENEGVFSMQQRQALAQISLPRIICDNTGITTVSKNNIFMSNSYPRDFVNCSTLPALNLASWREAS
T1 sequence (P05164 165-273): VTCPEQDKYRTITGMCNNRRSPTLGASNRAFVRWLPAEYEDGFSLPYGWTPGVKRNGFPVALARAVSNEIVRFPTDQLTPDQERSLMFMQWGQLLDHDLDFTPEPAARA
Chain of native human MPO (P05164 279-745): as the sequence (P05164 279-745) above
Chain of native human MPO (P05164 165-273): as the sequence (P05164 165-273) above
Chain of MAO-A, human (P21397 whole entry): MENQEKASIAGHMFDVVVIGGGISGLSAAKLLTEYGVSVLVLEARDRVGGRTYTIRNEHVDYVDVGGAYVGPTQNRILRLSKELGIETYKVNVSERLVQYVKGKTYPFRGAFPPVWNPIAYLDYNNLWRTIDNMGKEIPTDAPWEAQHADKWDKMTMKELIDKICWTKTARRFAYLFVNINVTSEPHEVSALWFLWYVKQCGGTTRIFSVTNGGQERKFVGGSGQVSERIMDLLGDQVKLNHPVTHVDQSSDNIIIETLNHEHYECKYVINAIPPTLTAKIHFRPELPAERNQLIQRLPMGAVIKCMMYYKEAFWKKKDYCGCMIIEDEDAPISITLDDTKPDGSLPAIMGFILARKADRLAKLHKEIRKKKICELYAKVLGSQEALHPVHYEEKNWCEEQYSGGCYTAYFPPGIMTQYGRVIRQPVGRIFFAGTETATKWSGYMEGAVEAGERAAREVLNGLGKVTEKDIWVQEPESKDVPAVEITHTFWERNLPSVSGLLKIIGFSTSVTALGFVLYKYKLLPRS
Chain of LOX, human (P28300 169-417): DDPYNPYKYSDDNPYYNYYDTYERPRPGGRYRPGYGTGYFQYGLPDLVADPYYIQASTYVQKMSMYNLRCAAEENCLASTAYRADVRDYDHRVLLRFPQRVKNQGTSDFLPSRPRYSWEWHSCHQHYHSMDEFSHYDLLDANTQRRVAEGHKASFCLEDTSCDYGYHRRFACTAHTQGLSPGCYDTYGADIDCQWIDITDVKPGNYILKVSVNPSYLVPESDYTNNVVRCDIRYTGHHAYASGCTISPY
Chain of VAP-1 (O70423 whole entry): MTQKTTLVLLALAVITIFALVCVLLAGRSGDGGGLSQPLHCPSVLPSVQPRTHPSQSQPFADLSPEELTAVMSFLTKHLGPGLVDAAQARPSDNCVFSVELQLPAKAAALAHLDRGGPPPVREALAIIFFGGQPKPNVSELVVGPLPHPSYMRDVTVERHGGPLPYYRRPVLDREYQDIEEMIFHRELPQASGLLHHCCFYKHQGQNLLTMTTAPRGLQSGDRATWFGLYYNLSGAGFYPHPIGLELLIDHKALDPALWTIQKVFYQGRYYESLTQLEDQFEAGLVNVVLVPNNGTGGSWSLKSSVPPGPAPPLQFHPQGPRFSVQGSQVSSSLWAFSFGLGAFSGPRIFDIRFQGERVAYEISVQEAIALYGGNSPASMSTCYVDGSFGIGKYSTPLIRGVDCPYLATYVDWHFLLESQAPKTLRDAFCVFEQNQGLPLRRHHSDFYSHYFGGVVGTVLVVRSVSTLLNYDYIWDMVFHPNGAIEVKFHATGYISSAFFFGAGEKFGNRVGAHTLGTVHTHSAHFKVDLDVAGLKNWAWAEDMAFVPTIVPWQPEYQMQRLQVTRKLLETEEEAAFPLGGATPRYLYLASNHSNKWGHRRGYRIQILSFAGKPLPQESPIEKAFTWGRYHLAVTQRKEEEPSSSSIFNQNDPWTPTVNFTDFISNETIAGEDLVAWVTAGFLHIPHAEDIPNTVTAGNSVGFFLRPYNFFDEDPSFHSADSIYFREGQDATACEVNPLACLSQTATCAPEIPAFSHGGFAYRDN
Chain of recombinant human VAP-1 (Q16853 34-763): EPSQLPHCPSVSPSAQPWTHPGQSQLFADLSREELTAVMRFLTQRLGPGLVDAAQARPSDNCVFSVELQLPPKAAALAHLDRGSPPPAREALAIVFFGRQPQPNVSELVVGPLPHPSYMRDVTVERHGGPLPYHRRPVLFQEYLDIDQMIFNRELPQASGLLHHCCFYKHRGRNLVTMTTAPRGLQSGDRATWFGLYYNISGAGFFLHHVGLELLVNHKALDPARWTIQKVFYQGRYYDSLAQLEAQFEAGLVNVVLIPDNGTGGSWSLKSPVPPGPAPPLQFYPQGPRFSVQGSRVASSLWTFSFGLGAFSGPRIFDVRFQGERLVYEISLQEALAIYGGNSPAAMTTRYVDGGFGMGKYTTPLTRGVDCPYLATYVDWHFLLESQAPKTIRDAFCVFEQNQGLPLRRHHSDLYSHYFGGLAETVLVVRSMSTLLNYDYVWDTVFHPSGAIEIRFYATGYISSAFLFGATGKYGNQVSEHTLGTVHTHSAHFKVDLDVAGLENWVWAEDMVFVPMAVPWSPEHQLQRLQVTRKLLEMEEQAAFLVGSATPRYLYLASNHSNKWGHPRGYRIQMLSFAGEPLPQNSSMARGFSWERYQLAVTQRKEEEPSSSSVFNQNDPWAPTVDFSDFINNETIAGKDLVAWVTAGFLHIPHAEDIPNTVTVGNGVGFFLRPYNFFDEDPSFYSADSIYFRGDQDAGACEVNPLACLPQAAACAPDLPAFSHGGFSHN
Chain of human DAO (P19801 20-751): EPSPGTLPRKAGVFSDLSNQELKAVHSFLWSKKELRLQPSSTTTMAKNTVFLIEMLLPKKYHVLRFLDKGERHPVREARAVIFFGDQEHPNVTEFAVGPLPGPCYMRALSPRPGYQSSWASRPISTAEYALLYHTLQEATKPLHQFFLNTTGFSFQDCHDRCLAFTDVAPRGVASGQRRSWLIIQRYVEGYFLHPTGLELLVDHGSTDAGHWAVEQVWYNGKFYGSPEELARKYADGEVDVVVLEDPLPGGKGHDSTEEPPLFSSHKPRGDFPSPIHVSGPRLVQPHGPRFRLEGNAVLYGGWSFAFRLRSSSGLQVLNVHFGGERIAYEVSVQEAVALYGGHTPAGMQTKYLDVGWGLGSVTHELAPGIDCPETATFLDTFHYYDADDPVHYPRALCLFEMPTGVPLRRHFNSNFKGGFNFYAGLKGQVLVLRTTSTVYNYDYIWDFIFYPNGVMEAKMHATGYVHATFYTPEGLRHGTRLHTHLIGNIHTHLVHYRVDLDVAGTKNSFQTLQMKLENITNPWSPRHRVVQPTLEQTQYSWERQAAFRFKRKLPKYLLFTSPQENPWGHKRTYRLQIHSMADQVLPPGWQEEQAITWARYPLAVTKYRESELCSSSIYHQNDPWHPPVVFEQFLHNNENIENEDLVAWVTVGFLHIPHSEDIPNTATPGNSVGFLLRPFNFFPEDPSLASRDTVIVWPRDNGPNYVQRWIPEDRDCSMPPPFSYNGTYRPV

SMILES: NC/C(=C\F)COc1cccc(Cn2c(=S)[nH]c(=O)c3[nH]cnc32)c1 [SNT-8370, (E)-3-(3-((2-(aminomethyl)-3-fluoroallyl)oxy)benzyl)-2-thioxo-1,2,3,7-tetrahydro-6H-purin-6-one]
Cell health (cytotoxicity) [1]: no toxicity
neutrophils in the peritoneum [2]: significantly reduced
total immune cells (leucocytes) in the peritoneum [2]: significantly reduced
Eurofins PanLabs screen, hits (>50% inhibition) [3]: No significant off-targets
lung infiltration of neutrophils (BALF) [4]: significantly reduced
lung infiltration of total leucocytes (BALF) [4]: significantly reduced
Substrate turnover, VAP-1 [5]: No oxidative turnover
partition ratio for MPO inhibition [6]: 15.7 ± 2.4
effect on peritoneal MPO activity ([7]; oral 10 mg/kg): no effect
effect on peritoneal MPO activity ([7]; oral 30 mg/kg): no effect
reduction of peritoneal MPO activity [7]: > 50%
effect on lavage fluid MPO protein concentration (ELISA) [7]: no effect
drug concentration in peritoneal lavage fluid ([8]; oral 10 mg/kg): 1.1 ng/mL
drug concentration in peritoneal lavage fluid ([8]; oral 30 mg/kg): 1.5 ng/mL
drug concentration in peritoneal lavage fluid, molar equivalent ([8]; oral 60 mg/kg): 170 nM
drug concentration in peritoneal lavage fluid ([8]; oral 60 mg/kg): ~ 60 ng/mL
drug concentration in peritoneal lavage fluid, molar equivalent ([8]; oral 10 and 30 mg/kg): < 4 nM
inhibition of in vivo VAP-1 activity in adipose tissue [9]: > 90%
selectivity index over LOX [10]: > 1000 fold
MPO IC50 more potent than AZD5904 [11]: ~ 3 fold
MPO IC50 more potent than verdiperstat [11]: ~ 2 fold
IC50 [12]: 20 nM
fold lower IC50 than verdiperstat, LDL lipid peroxidation [12]: 30 fold
cardiac fibrosis (picrosirius red, Masson's trichrome, periostin) [13]: significantly reduce
ejection fraction post-MI [13]: prevented the significant post-MI reduction
fractional shortening post-MI [13]: prevented the significant post-MI reduction
fold lower IC50 than verdiperstat or PF06282999, H2O2 consumption [14]: 5-8 fold
selectivity index over MAO-A [15]: > 1000 fold
air pouch exudate volume at 12-h ([16]; SNT-8370 10 mg/kg): significantly reduced
air pouch exudate volume at 12-h [16, 21]: significantly reduced
leucocyte influx into the air pouch at 4-h [16]: significantly reduced
half-life ([17]; C57Bl/6J, in vivo, po): 2 to 4 h
time of highest drug concentrations after oral gavage [17]: 1 h
drug in the brain ([17]; oral gavage): No drug was detectable
Substrate turnover, DAO [18]: no turnover observed
Eurofins Transporter screen, hits (>50% inhibition) [19]: no significant inhibition
fold lower IC50 than verdiperstat or PF06282999, HOCl production [20]: 2–5 fold

reduction of peritoneal MPO activity [7]: > 50%
effect on lavage fluid MPO protein concentration (ELISA) [7]: no effect
drug concentration in peritoneal lavage fluid ([8]; oral 60 mg/kg): > 10 ng/mL
IC50 [12]: 600 nM
SMILES: CC(C)OCCn1c(=S)[nH]c(=O)c2[nH]ccc21 [Verdiperstat, reference compound]
neutrophils in the peritoneum [2]: Neither of the monotherapy treatments showed a significant effect
total immune cells (leucocytes) in the peritoneum [2]: Neither of the monotherapy treatments showed a significant effect
lung infiltration of neutrophils (BALF) [4]: non-significant downward trends
lung infiltration of total leucocytes (BALF) [4]: non-significant downward trends
air pouch exudate volume at 12-h [16, 21]: neither verdiperstat nor PXS-4707, significantly reduced
leucocyte influx into the air pouch at 4-h [16]: significantly reduced

SMILES: C[C@@H]1C[C@H]2[C@@H]3CCC4=CC(=O)C=C[C@]4(C)[C@@]3(F)[C@@H](O)C[C@]2(C)[C@@]1(O)C(=O)CO [dexamethasone]
air pouch exudate volume at 12-h [16, 21]: significantly reduced
leucocyte influx into the air pouch at 4-h [16]: significantly reduced
